Laboratory results taken from patent publication US20260132165A1, “MODIFIED NUCLEOSIDE ANALOGUE AND USE THEREOF, AND NUCLEOSIDE ANALOGUE-CONTAINING DOUBLE-STRANDED OLIGONUCLEOTIDE AND USE THEREOF” (RIGERNA THERAPEUTICS (BEIJING) CO., LTD., priority 2023, published 2026).

Key:
[1] = system: target gene SOD1; test: Test Example 8: inhibitory activity on target gene SOD1 in adipose tissues in different parts of mice; type: in vivo, C57BL/6j mice; details: D14; for Subcutaneous fat % Mean value of inhibition rate: abdominal subcutaneous fat; for Subcutaneous fat % Mean value of inhibition rate / Brown fat on back % Mean value of inhibition rate / Paragonadal fat % Mean value of inhibition rate: tail vein injection 5 mg/kg; for inhibitory activity compared with the NM200 conjugated reference sequence RZ899076: paragonadal fat and brown fat on back; for inhibitory activity compared with the NM200 conjugated reference sequence RZ899076 / inhibitory action on the target gene compared with RZ899076: tail vein 5 mg/kg; for inhibitory action on the target gene compared with RZ899076: subcutaneous fat
Description: (§1) RNA extraction: the above tissue samples were taken out from the RNAlater, and smashed for 60 s in Tissuelyser type II full-automatic tissue homogenizer, and total RNAs of various tissue samples were extracted using the full-automatic nucleic acid extraction instrument and the nucleic acid extraction kit from Zhejiang Hanwei Science and Technology Co. Ltd. according to methods described in instructions.
(§2) Reverse transcription reaction: 1 μg of the extracted total RNAs of the tissue samples were taken, and configured into 20 μL of reverse transcription system according to a method described in kit instructions by using a reverse transcription kit (Reverse Transcription System, A3500) from Promega Corporation and selecting Oligo (dT)15 reverse transcription primers, and the reverse transcription reaction was completed. After the reaction was ended, 80 μL of RNase-Free water was added into the reverse transcription system to provide cDNA solution for Real-time PCR detection.
(§3) Real-time PCR detection: 20 μL of Real-time PCR reaction system per PCR detection well was configured according to a method described in kit instructions using SYBR™ Select Master Mix (Catalog number: 4472908) reagent from ABI company. Each detection system contained 5 μL of cDNA template obtained from the above reverse transcription reaction, 10 μL of SYBR™ Select Master Mix, 0.5 μL of 10 μM upstream primers, 0.5 μL of 10 μM downstream primers, and 4 μL of RNase-Free H2O. The configured reaction system was subjected to Real-time PCR amplification on ABI StepOnePlus PCR instrument by a three-step method, wherein an amplification procedure was pre-denaturation at 95° C. for 10 min, then denaturation at 95° C. for 30 s, annealing at 60° C. for 30 s, and extension at 72° C. for 30 s; and processes of denaturation, annealing, and extension were repeated for 40 cycles. Gene expression differences were calculated by the ΔΔCt method after completion of the procedure.
(§4) In the real-time fluorescence quantitative PCR method, relative quantitative calculation of remaining expression level and inhibition rate of gene mRNA of interest in various test groups was performed by the ΔΔCt method, and the calculation method is as follows:
(§5) The present test example evaluated, by an evaluation method for inhibitory activity on a target gene in mice, the inhibitory activity of siRNA sequence RZ899090 with the sense strand with the NM073 conjugation at Position 4, siRNA sequence RZ899091 with the sense strand with the NM074 conjugation at Position 4, siRNA sequence RZ899078 with the sense strand with the NM202 conjugation at Position 6 and siRNA reference sequence RZ899093 with the sense strand with the Uhd conjugation at Position 4, siRNA reference sequence RZ899076 with the sense strand with the NM200 conjugation at Position 4 on the target gene SOD1 in adipose tissues of interest in mice.
(§6) 6-8 Week-old C57BL/6j mice were randomly grouped by body weight, 5 per group, 6 groups in total. Mice in each group were dosed with the above siRNA conjugates by tail vein injection, with an administration dose of 5 mg/kg per mouse, and an administration volume of 150 μL. PBS control group was administered with the same volume of siRNA conjugate-free PBS solution. The day of administration was recorded as D0, and 5 mice in each group were sacrificed on D14 after administration. Paragonadal fat, abdominal subcutaneous fat, and brown fat on back were respectively taken. RNA extraction, reverse transcription, and real-time fluorescence quantitative detection were performed on various tissues according to the above method, and gene expression differences were calculated by the above ΔΔCt method.

[2] = system: target gene SOD1; test: Test Example 7: inhibitory activity of lipid conjugated siRNA sequences on SOD1 in mouse adipose and muscle tissues (tail vein injection); type: in vivo, C57BL/6j mice; details: for inhibitory action on liver and kidney tissues: liver and kidney (non-target tissues), D28 and D49; for D 14 % Mean value of inhibition rate / D 28 % Mean value of inhibition rate / D 49 % Mean value of inhibition rate / Kidney D 14 % Mean value of inhibition rate / Kidney D 28 % Mean value of inhibition rate / Kidney D 49 % Mean value of inhibition rate / Liver D 14 % Mean value of inhibition rate / Liver D 28 % Mean value of inhibition rate / Liver D 49 % Mean value of inhibition rate: tail vein injection 5 mg/kg; for D 14 % Mean value of inhibition rate / inhibitory activity compared with the NM200 conjugated reference sequence RZ899076 / Kidney D 14 % Mean value of inhibition rate / Liver D 14 % Mean value of inhibition rate: D14; for D 28 % Mean value of inhibition rate / Kidney D 28 % Mean value of inhibition rate / Liver D 28 % Mean value of inhibition rate: D28; for inhibitory activity compared with Uhd conjugated reference sequence RZ899093 and NM200 conjugated reference sequence RZ899076: D14, D28 and D49; for Kidney D 14 % Mean value of inhibition rate / Kidney D 28 % Mean value of inhibition rate / Kidney D 49 % Mean value of inhibition rate: mouse kidney; for Liver D 14 % Mean value of inhibition rate / Liver D 28 % Mean value of inhibition rate / Liver D 49 % Mean value of inhibition rate: mouse liver
Description: as §1, §2, §3, §4
as §5, with “Position 4, and siRNA reference” for “Position 4, siRNA reference”, “gene SOD1 of interest” for “gene SOD1 in adipose tissues of interest”, “in mice. The above conjugation vectors were different in that NM073 was C18 aliphatic chain, NM074 was C20 aliphatic chain, and NM0202 and NM0200 were C22 aliphatic chains.” for “in mice.”
as §6, with “weight, 15” for “weight, 5”, “on D14, D28 and D49” for “on D14”, “administration. Tissues such as paragonadal” for “administration. Paragonadal”, “fat, left hind leg quadriceps muscle, heart, liver,” for “fat, abdominal subcutaneous fat,”, “and kidney” for “and brown fat on back”, “respectively taken and stored in the RNAlater.” for “respectively taken.”

[3] = mouse adipose tissues (paragonadal fat)
[4] = mouse adipose tissues (paragonadal fat), D49
[5] = mouse adipose tissues, tail vein 5 mg/kg
[6] = mouse heart tissues, tail vein 5 mg/kg
[7] = mouse skeletal muscle tissues (left hind leg quadriceps muscle)
[8] = mouse skeletal muscle tissues (left hind leg quadriceps muscle), D49

Substance | Subcutaneous fat % Mean value of inhibition rate [1] [%] | Brown fat on back % Mean value of inhibition rate [1] [%] | inhibitory activity compared with the NM200 conjugated reference sequence RZ899076 [1] | Paragonadal fat % Mean value of inhibition rate [1] [%] | inhibitory action on the target gene compared with RZ899076 [1] | inhibitory action on liver and kidney tissues ([2]; tail vein 5 mg/kg) | D 14 % Mean value of inhibition rate [2, 3] [%] | D 28 % Mean value of inhibition rate [2, 3] [%] | D 49 % Mean value of inhibition rate [2, 4] [%] | inhibitory activity compared with the NM200 conjugated reference sequence RZ899076 [2, 5] | inhibitory activity compared with Uhd conjugated reference sequence RZ899093 and NM200 conjugated reference sequence RZ899076 [2, 6] | D 14 % Mean value of inhibition rate ([2]; mouse heart tissues) [%] | D 28 % Mean value of inhibition rate ([2]; mouse heart tissues) [%] | D 49 % Mean value of inhibition rate ([2]; mouse heart tissues, D49) [%] | Kidney D 14 % Mean value of inhibition rate [2] [%] | Kidney D 28 % Mean value of inhibition rate [2] [%] | Kidney D 49 % Mean value of inhibition rate ([2]; D49) [%] | Liver D 14 % Mean value of inhibition rate [2] [%] | Liver D 28 % Mean value of inhibition rate [2] [%] | Liver D 49 % Mean value of inhibition rate ([2]; D49) [%] | also measured
RZ899090: siRNA sequence with the sense strand with the NM073 (C18) conjugation at Position 4; SEQ ID NO: 15 / 23 (sense UUUNAAUCCUCACUCUAAA; antisense UUUAGAGUGAGGAUUAAAAUG; NM073 (C18) conjugate at sense position 4; modified_base 1..2 OTHER; 2'-methoxy and 5'-thiophosphate modified nucleotides; modified_base 3 OTHER; 2'-methoxy modified nucleotide; modified_base 4 OTHER; n is the nucleotide analog NM073 as described in the disclosure.; modified_base 5..6 OTHER; 2'-methoxy modified nucleotides; modified_base 7..10 OTHER; 2'-fluoro modified nucleotides; modified_base 11..19 OTHER; modified_base 1 OTHER; 2'-methoxy and 5'-thiovinylphosphonate modified nucleotide; modified_base 2 OTHER; 2'-fluoro and 5'-thiophosphate modified nucleotide; modified_base 3..5 OTHER; …) | 71.07 | 81.60 | equivalent or superior inhibitory activity | 67.09 | substantially comparable | no inhibitory action | 92.09 | 85.11 | 61.34 | on par | superior inhibitory activity | 79.58 | 82.12 | 65.43 | 31.38 | 15.90 | 7.12 | 36.99 | 7.32 | −12.46 | D 14 % Mean value of inhibition rate [2, 7]: 57.16%; D 28 % Mean value of inhibition rate [2, 7]: 51.23%; D 49 % Mean value of inhibition rate [2, 8]: 42.93%; inhibitory activity in mouse skeletal muscle tissues ([2]; tail vein 5 mg/kg): certain inhibitory activity
RZ899091: siRNA sequence with the sense strand with the NM074 (C20) conjugation at Position 4; SEQ ID NO: 16 / 23 (sense UUUNAAUCCUCACUCUAAA; antisense UUUAGAGUGAGGAUUAAAAUG; NM074 (C20) conjugate at sense position 4; modified_base 1..2 OTHER; 2'-methoxy and 5'-thiophosphate modified nucleotides; modified_base 3 OTHER; 2'-methoxy modified nucleotide; modified_base 4 OTHER; n is the synthetic nucleotide analog NM074 as described in the disclosure.; modified_base 5..6 OTHER; 2'-methoxy modified nucleotides; modified_base 7..10 OTHER; 2'-fluoro modified nucleotides; modified_base 11..19 OTHER; 2'-methoxy modified ; modified_base 1 OTHER; 2'-methoxy and 5'-thiovinylphosphonate modified nucleotide; modified_base 2 OTHER; 2'-fluoro and 5'-thiophosphate modified …) | 67.17 | 80.97 | equivalent or superior inhibitory activity | 75.20 | substantially comparable | no inhibitory action | 86.81 | 86.36 | 81.73 | on par | superior inhibitory activity | 87.44 | 82.78 | 81.89 | 31.71 | 3.50 | 9.97 | 49.04 | 13.03 | 7.59 | gene inhibitory effect compared with RZ899076 ([2]; mouse adipose tissues, tail vein 5 mg/kg, D49): superior gene inhibitory effect; D 14 % Mean value of inhibition rate [2, 7]: 69.80%; D 28 % Mean value of inhibition rate [2, 7]: 72.24%; D 49 % Mean value of inhibition rate [2, 8]: 41.89%; inhibitory activity in mouse skeletal muscle tissues ([2]; tail vein 5 mg/kg): certain inhibitory activity
